Laboratory results taken from patent US9050341B2, “Methods of treating drug resistant and other tumors by administering 6,7-dialkoxy quinazoline derivatives” (NATCO PHARMA LIMITED, priority 2009, dated 2015).

Assays:
Experiment in all cases: KinomeScan kinase profiling
Type in all cases: binding
[1] = target: T1, AAK1 (Homo sapiens, UniProt Q2M2I8)
T1 construct: host or cells: E. coli host derived from BL21 (T7 phage lysate)
Outline: (§1)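 Kinases were expressed as T7 phage fusions in a BL21-derived E. coli host and the cleared lysates were used. Ligand beads were blocked with biotin and buffer (1% BSA, 0.05% Tween 20, 1 mM DTT). Compounds came from 40× DMSO stocks, and phage in the eluates was titred by qPCR.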

[2] = target: T2, ACVR1 (Homo sapiens, UniProt Q04771)
T2 construct: host or cells: E. coli host derived from BL21 (T7 phage lysate)
Outline: as §1

[3] = target: T3, ALK (Homo sapiens, UniProt Q9UM73)
T3 construct: host or cells: E. coli host derived from BL21 (T7 phage lysate)
T3 sequence (Q9UM73 19-1620): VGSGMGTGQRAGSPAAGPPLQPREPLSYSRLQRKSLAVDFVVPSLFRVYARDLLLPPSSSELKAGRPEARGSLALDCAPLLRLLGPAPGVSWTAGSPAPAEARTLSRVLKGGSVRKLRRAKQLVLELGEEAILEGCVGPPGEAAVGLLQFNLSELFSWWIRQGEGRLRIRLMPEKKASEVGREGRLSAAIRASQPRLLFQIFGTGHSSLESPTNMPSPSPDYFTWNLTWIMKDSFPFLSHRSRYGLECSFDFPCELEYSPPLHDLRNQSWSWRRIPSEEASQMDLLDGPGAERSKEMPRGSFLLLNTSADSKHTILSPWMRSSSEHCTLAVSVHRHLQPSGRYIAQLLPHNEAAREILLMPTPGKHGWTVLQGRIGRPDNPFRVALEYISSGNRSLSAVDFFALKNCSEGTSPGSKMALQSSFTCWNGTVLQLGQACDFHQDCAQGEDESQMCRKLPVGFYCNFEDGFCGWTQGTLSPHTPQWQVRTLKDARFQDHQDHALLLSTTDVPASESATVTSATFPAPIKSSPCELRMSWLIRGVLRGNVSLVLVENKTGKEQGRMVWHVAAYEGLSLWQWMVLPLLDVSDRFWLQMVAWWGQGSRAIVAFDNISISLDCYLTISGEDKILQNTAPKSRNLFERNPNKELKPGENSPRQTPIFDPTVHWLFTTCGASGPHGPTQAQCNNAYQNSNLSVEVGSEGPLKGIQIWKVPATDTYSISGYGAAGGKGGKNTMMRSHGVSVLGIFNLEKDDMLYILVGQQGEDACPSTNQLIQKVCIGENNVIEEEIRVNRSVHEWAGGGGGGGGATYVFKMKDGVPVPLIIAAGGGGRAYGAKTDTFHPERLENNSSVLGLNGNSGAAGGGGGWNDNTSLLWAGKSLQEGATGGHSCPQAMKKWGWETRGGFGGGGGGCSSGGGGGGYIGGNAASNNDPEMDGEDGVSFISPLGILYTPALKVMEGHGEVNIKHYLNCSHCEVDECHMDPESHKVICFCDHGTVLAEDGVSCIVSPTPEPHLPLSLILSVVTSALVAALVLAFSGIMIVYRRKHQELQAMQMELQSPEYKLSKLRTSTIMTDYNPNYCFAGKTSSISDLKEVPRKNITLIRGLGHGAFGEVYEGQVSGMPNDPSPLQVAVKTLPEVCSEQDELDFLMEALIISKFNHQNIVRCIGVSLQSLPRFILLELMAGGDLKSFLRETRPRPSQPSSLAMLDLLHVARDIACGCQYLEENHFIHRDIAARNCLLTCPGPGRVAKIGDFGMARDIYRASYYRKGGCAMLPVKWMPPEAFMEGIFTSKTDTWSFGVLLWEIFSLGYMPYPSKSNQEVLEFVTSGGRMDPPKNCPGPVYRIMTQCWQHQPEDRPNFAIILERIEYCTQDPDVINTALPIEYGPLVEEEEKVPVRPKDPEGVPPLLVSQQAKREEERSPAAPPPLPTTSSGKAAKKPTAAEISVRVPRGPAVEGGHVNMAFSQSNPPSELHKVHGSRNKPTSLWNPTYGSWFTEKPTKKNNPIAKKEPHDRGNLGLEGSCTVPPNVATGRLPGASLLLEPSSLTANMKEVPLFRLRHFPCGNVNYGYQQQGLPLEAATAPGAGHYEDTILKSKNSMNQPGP
Outline: as §1

[4] = target: T4, BMPR1B (Homo sapiens, UniProt O00238)
T4 construct: purchased Ambit Biosciences Corp (KinomeScan); host or cells: E. coli host derived from the BL21 strain, T7 phage
Outline: as §1

[5] = target: T5, BMX (Homo sapiens, UniProt P51813)
T5 construct: purchased Ambit Biosciences Corp (KinomeScan); host or cells: E. coli host derived from the BL21 strain, T7 phage
Outline: as §1

[6] = target: T6, CAMKK1 (Homo sapiens, UniProt Q8N5S9)
T6 construct: host or cells: T7 phage in E. coli (BL21-derived)
Outline: as §1

[7] = target: T7, DDR2 (Homo sapiens, UniProt Q16832)
T7 construct: purchased Ambit Biosciences Corp (KinomeScan); host or cells: T7 phage in E. coli host derived from BL21
Outline: as §1

[8] = target: T8, DMPK (Homo sapiens, UniProt Q09013)
T8 construct: purchased Ambit Biosciences Corp (KinomeScan); host or cells: T7 phage in E. coli host derived from BL21
T8 sequence (Q09013 whole entry): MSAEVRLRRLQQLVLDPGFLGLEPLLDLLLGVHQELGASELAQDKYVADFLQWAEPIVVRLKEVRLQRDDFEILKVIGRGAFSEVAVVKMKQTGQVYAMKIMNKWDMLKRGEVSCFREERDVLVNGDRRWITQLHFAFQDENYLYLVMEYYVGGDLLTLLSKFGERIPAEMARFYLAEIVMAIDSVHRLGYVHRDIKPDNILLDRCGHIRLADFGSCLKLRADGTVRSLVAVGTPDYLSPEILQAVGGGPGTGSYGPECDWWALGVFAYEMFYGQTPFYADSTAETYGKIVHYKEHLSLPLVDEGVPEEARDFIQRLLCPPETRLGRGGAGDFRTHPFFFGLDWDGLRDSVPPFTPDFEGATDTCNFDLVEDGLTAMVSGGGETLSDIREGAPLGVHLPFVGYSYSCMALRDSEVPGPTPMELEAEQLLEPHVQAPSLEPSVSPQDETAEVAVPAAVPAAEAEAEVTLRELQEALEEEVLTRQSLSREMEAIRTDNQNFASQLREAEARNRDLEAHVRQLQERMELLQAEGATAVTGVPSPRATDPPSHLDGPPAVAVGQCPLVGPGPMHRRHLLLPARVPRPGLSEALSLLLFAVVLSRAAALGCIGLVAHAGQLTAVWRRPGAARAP
Outline: as §1

[9] = target: T9, ERBB2 (Homo sapiens, UniProt P04626)
T9 construct: host or cells: E. coli host derived from BL21, T7 phage lysate
Outline: as §1

[10] = target: T10, FER (Homo sapiens, UniProt P16591)
T10 construct: host or cells: E. coli host derived from BL21, infected with T7 phage
Outline: as §1

[11] = target: T11, FYN (Homo sapiens, UniProt P06241)
T11 construct: host or cells: E. coli host derived from BL21, infected with T7 phage
T11 sequence (P06241 whole entry): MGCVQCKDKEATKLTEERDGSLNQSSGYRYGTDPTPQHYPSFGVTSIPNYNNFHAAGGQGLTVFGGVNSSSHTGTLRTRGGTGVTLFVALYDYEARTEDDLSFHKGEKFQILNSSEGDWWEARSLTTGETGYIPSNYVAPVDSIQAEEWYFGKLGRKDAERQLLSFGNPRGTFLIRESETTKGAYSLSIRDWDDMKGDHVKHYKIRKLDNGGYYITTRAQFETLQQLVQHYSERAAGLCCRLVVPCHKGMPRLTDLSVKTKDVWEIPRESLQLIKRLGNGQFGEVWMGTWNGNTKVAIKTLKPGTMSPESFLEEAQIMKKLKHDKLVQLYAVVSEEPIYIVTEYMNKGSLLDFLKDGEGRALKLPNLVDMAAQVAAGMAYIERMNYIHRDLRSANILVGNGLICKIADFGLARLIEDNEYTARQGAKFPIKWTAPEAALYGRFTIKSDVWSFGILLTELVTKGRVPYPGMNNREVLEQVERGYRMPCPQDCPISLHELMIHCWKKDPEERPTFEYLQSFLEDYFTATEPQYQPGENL
Outline: as §1

[12] = target: T12, KIT (D816V) (Homo sapiens, UniProt P10721, D816V)
T12 construct: host or cells: T7 phage in E. coli host derived from BL21
Outline: as §1

[13] = target: T13, MAP4K2 (Homo sapiens, UniProt Q12851)
T13 construct: host or cells: E. coli derived from BL21, infected with T7 phage
Outline: as §1

[14] = target: T14, MELK (Homo sapiens, UniProt Q14680)
T14 construct: host or cells: E. coli derived from BL21, infected with T7 phage
T14 sequence (Q14680 whole entry): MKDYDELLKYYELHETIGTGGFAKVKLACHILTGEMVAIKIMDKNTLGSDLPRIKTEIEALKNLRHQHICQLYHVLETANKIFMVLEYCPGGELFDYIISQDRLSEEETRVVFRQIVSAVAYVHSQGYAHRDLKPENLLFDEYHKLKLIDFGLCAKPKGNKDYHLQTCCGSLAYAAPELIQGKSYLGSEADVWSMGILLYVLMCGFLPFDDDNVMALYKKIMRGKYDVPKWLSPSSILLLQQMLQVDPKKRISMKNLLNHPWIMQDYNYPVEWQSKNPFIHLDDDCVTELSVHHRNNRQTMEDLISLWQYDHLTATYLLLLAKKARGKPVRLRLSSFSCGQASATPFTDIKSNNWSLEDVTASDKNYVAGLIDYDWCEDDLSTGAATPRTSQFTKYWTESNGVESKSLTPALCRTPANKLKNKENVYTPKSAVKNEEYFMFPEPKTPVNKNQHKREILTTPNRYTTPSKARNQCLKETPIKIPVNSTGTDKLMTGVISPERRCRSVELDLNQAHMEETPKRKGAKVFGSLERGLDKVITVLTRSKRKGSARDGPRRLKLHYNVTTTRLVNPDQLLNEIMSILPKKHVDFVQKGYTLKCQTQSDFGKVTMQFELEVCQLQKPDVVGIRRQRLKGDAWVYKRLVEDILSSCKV
Outline: as §1

[15] = target: T15, MKNK1 (Homo sapiens, UniProt Q9BUB5)
T15 construct: host or cells: T7 phage in E. coli host derived from BL21
Outline: as §1

[16] = target: T16, MKNK2 (Homo sapiens, UniProt Q9HBH9)
T16 construct: host or cells: T7 phage in E. coli host derived from BL21
Outline: as §1

[17] = target: T17, MRCKB (Homo sapiens, UniProt Q9Y5S2)
T17 construct: host or cells: T7 phage in E. coli host derived from BL21
Outline: as §1

[18] = target: T18, MYLK2 (Homo sapiens, UniProt Q9H1R3)
T18 construct: host or cells: T7 phage in E. coli host derived from BL21
Outline: as §1

[19] = target: T19, PIK3C2B (Homo sapiens, UniProt O00750)
T19 construct: host or cells: E. coli host derived from the BL21 strain, infected with T7 phage
Outline: as §1

[20] = target: T20, RET (V804M) (Homo sapiens, UniProt P07949, V804M)
T20 construct: host or cells: E. coli host derived from BL21, T7 phage lysate
T20 sequence (P07949 29-1114 V804M): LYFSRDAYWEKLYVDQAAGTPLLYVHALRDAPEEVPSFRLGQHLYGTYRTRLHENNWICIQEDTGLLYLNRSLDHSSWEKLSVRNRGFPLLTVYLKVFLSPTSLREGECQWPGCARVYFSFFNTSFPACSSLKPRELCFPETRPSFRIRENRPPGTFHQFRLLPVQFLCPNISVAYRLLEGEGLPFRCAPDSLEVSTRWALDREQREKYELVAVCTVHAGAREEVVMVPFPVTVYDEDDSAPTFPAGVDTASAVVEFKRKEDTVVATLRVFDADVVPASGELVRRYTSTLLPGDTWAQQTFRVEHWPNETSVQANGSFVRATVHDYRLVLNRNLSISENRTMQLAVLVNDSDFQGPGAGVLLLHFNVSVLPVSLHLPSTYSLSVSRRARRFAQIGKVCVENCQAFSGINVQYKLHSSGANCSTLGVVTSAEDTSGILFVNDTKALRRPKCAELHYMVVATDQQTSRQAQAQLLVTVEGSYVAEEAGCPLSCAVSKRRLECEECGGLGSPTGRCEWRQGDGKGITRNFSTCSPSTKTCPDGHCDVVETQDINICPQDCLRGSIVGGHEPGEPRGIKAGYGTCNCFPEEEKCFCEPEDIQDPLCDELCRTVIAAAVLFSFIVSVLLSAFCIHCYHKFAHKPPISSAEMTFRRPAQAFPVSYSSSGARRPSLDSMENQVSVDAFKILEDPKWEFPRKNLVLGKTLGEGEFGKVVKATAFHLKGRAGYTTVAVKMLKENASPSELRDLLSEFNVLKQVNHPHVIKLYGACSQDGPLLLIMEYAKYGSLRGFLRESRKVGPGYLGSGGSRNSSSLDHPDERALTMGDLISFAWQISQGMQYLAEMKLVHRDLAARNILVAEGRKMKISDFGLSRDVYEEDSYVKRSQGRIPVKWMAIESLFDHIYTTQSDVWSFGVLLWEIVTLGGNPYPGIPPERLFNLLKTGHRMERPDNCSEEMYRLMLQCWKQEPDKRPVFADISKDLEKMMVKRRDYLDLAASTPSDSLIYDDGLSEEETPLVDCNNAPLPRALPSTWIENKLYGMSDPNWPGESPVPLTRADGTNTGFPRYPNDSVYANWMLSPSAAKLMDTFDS
Outline: as §1

[21] = target: T21, SIK (Homo sapiens, UniProt P57059)
T21 construct: host or cells: E. coli host derived from the BL21 strain, T7 phage lysate
Outline: as §1

[22] = target: T22, TNK2 (Homo sapiens, UniProt Q07912)
T22 construct: purchased Ambit Biosciences Corp (KinomeScan); host or cells: E. coli host derived from the BL21 strain (T7 phage lysate)
Outline: as §1

[23] = target: T23, ULK3 (Homo sapiens, UniProt Q6PHR2)
T23 construct: purchased Ambit Biosciences Corp (KinomeScan); host or cells: E. coli host derived from the BL21 strain (T7 phage lysate)
T23 sequence (Q6PHR2 whole entry): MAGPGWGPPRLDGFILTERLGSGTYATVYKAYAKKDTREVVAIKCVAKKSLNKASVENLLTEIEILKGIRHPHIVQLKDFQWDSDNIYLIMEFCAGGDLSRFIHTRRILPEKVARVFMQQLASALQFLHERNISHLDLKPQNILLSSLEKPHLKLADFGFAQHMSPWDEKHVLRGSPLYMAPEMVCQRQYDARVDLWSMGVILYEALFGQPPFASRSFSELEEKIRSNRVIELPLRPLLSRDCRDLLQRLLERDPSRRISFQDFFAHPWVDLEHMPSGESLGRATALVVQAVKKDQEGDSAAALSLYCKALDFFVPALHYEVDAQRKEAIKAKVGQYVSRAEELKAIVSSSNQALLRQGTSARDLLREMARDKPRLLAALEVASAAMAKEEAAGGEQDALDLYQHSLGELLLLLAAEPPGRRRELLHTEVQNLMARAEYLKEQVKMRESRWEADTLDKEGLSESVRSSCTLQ
Outline: as §1

With `C#Cc1cccc(Nc2ncnc3cc(OC)c(OCCCN4CCOCC4)cc23)c1` [NRC-2694, N-(3-ethylnylphenyl)-7-methoxy-6-[3-(4-morpholinyl)propoxy]-4-quinazolinamine] the “% Ctrl @ 10000 nM” value [1] was 38 % Ctrl, the “% Ctrl @ 10000 nM” value [2] was 61 % Ctrl and the “% Ctrl @ 10000 nM” value [3] was 10 % Ctrl. For the same compound, the “% Ctrl @ 10000 nM” value [4] was 78 % Ctrl, the “% Ctrl @ 10000 nM” value [5] was 73 % Ctrl and the “% Ctrl @ 10000 nM” value [6] was 71 % Ctrl. For the same compound, the “% Ctrl @ 10000 nM” value [7] was 76 % Ctrl, the “% Ctrl @ 10000 nM” value [8] was 6.8 % Ctrl and the “% Ctrl @ 10000 nM” value [9] was 31 % Ctrl. The “% Ctrl @ 10000 nM” value [10] was 94 % Ctrl, the “% Ctrl @ 10000 nM” value [11] was 41 % Ctrl and the “% Ctrl @ 10000 nM” value [12] was 17 % Ctrl. The “% Ctrl @ 10000 nM” value [13] was 48 % Ctrl, the “% Ctrl @ 10000 nM” value [14] was 57 % Ctrl and the “% Ctrl @ 10000 nM” value [15] was 1.2 % Ctrl. For the same compound, the “% Ctrl @ 10000 nM” value [16] was 16 % Ctrl, the “% Ctrl @ 10000 nM” value [17] was 71 % Ctrl and the “% Ctrl @ 10000 nM” value [18] was 4.8 % Ctrl. For the same compound, the “% Ctrl @ 10000 nM” value [19] was 93 % Ctrl, the “% Ctrl @ 10000 nM” value [20] was 100 % Ctrl and the “% Ctrl @ 10000 nM” value [21] was 53 % Ctrl. The “% Ctrl @ 10000 nM” value [22] was 37 % Ctrl and the “% Ctrl @ 10000 nM” value [23] was 62 % Ctrl.
